Source: patent US6903183B1, “Compositions and methods for regulation of steroidogenesis” (Texas Tech University Health Services Center, priority 1996, dated 2005)
“Also recorded” adds a separate entry of the source. One block for each molecule: values may come before it. No end group written: not given here.

Assays:
[1] = system: StAR protein; experiment: Immunoblot of StAR protein expression in H295R cells; assay type: cell-based, human; settings: for amount of StAR protein: treatment of H295R cells with agonist
Method: (§1) FIG. 4. Effect of KN93 on agonist-stimulated aldosterone production and StAR protein expression in H295R cells. […] The medium aldosterone content was determined by R.I.A. and normalized to the tissue culture well protein content. Data points represent the mean ±SE of values from six separate culture wells expressed as fold increase over basal. Significant inhibition relative to the control response is indicated at *p<0.01. StAR protein was examined using equivalent amounts of total cellular lysate (30 μg) by immunoblot analysis as described in the Methods. Results are representative of those obtained from three separate experiments.
For each treatment, cells were solubilized as described above and an equivalent amount of protein (30 μg) for each sample were separated by SDS-PAGE (12.5%) and then electrophoretically transferred to polyvinylidene difluoride membrane as previously described (Clark et al (1994) J. Biol. Chem., 269:2831-322, reference specifically incorporated herein by reference). Immunoblot analysis was as described (Id) using a rabbit sera containing the specific StAR antipeptide antibody (see ANTIBODIES infra) as the primary label and a donkey anti-rabbit IgG conjugated with horseradish peroxidase (Amersham, Arlington Heights, Ill.). The specific signal was detected by chemiluminescence assays using the Renaissance kit from DuPont NEN (Boston, Mass.) and the StAR specific bands were quantitated by BioImage Visage 2000 computer-assisted image analysis (BioImage, Ann Arbor, Mich.). Different exposure times were used to insure linearity.

[2] = system: StAR protein; experiment: Immunoblot analysis of 30 kDa (StAR) protein in MA-10 cells; assay type: cell-based, mouse
Method: Immunoblot Analysis. Mitochondria were isolated from either MA-10 or COS 1 cells transfected with either pCMV or pCMV+30 kDa cDNA 48 hours post-transfection. For experiments in which progesterone production was measured (as described above), cells were solubilized directly in the well with 0.1% SDS, the cell homogenates were collected and combined from all 8 wells, and the protein was precipitated using trichloracetic acid. The protein was solubilized in sample buffer (25 mM Tris/Cl, pH 6.8, 1% SDS, 5% β-mercaptoethanol, 1 mM EDTA, 4% glycerol, and 0.01% bromophenol blue) and loaded onto a 12.5% SDS-PAGE minigel (Mini-Protein II System, Bio-Rad, Richmond, Calif.). […] The membrane was washed as before, and the specific signal was detected by chemiluminescence using the Renaissance kit from Du Pont-NEN.
In order to verify that the cDNA was being expressed in eukaryotic cells, COS 1 cells were used to transfect the pCMV+30 kDa cDNA since the pCMV plasmid can be replicated in these cells and approximately 80% of the cells are transfected with plasmid DNA based on the expression of reporter protein. Forty-eight hours post-transfection, mitochondria were isolated and the 30 kDa protein expression was determined by immunoblot analysis. […] In addition, a 36.5 kDa protein was detected in the COS 1 cells which would be consistent with the precursor protein. […]

[3] = system: StAR mRNA; experiment: Northern blot analysis of StAR mRNA in MA-10 cells; assay type: cell-based, mouse
Method: MA-10 cells were stimulated with Bt2cAMP and StAR mRNA levels were determined by Northern blot analysis. Within 1 hour of Bt2cAMP stimulation, two major transcripts of approximately 3400 nt and 1600 nt, and one minor transcript of 2700 nt, were detected. […] Subsequent to the marked mRNA induction, the greatest induction (10x) in StAR protein was detected after 4 hours of Bt2cAMP stimulation by immunoblot analysis. Comparatively lower levels of StAR could be detected after 1 hour of hormone stimulation with maximal levels accumulated within 8 hours.

[4] = system: StAR protein; experiment: Synthesis of StAR protein in MA-10 cells after CRH, dbcAMP or hCG; assay type: cell-based, mouse; settings: for time of maximal response following stimulation: CRH at 1 μM
[5] = system: bovine zona glomerulosa cells; experiment: Cholesterol content of submitochondrial fractions (cholesterol oxidase assay); assay type: cell-based
Method: (§2) Freshly-prepared bovine zona glomerulosa cells were stimulated with Ang II (10 nM) or submitted to a cytosolic Ca^2+ clamp (600 nM) for 2 h. Mitochondria were isolated and subfractionated into outer membranes (OM), inner membranes (IM) and contact sites (CS). Cholesterol content was determined by the cholesterol oxidase assay.
as §2, with “gomerulosa” for “glomerulosa”, “h, as described in Example 9.” for “h.”, “assay, also as described in Example 9.” for “assay.”

[6] = system: StAR protein; experiment: Western blot of StAR protein in mitochondria of glomerulosa cells; assay type: cell-based, bovine
[7] = system: H295R cells; experiment: Agonist-stimulated aldosterone production (steroidogenesis) in H295R cells; assay type: cell-based, human
Method: as §1
The human adrenocortical carcinoma-derived cell line (H295R) was used. This cell line secretes multiple steroids, including aldosterone and cortisol. […]
Subcultured cells were maintained 24 hours in DME/F12 medium containing 0.2% calf serum, 0.01% BSA and antibiotics (low serum). […] The aldosterone and cortisol contents of medium recovered from each well were determined with aldosterone and cortisol standards prepared in low-serum medium by commercial aldosterone and cortisol radioimmunoassays (Diagnostic System Laboratories; Webster, Tex.). Results of aldosterone and cortisol assays were normalized to cellular protein per well, expressed as pmol per mg cell protein and transformed to percentage of the control response where indicated. […]

[8] = system: mitochondria isolated from MA-10 mouse Leydig tumor cells; experiment: In vitro reconstituted system: pregnenolone synthesis by isolated mitochondria; assay type: biochemical; settings: protein added to isolated mitochondria
Text: Rat heart mitochondria were used for the import assay with bovine StAR, indicating import of StAR is not dependent upon factors specific to mitochondria isolated from steroidogenic tissues. The ability of StAR to increase steroid production has also been confirmed in an in vitro reconstituted system.

[9] = system: Y-1 adrenal tumor cells; experiment: Overexpression of DAX-1 in Y-1 adrenal tumor cells; assay type: cell-based, mouse
[10] = biological target: protein complex purified from MA-10 cell mitochondrial membranes; experiment: competition against 35S-labeled StAR signal peptide on liposomes carrying the complex, gel filtration

Molecule: COC(=O)C1=C(C)NC(C)=C([N+](=O)[O-])C1c1ccccc1C(F)(F)F (stereo not drawn) [Bay K, (=)-Bay K 8644]
- amount of StAR protein [1]: increased; also recorded: elevated

Molecule: CCCC(=O)Nc1ncnc2c1ncn2[C@@H]1O[C@@H]2COP(=O)(O)O[C@H]2[C@H]1OC(=O)CCC [Bt2cAMP, N^6, 2′-O-dibutyryladenosine-3′:5′-cyclic monophosphate]
- time to maximal accumulated StAR protein levels [2]: ≤ 8 h
- StAR protein induction ([2]; after 4 hours of stimulation): 10 x
- time to maximal StAR mRNA levels [3]: 6 h
- StAR mRNA induction ([3]; after 2 hours of stimulation): 20 x
- concentration of maximal response (StAR synthesis) [4]: 1 µM
- synthesis of the StAR protein [4]: dose-dependent increase
- time of maximal response following stimulation [4]: 6 h

Molecule: [Ca+2] [Ca^2+]
- cholesterol content of OM ([5]; cytosolic Ca2+ clamp 600 nM, 2 h, n=5): 54±24 % of controls
- StAR protein in mitochondrial extracts ([6]; Ca2+ stimulation, cycloheximide-sensitive, n=5): 141±14 % of controls

Molecule: C[C@@H]1C[C@@H]([C@H](O)CC2CC(=O)NC(=O)C2)C(=O)[C@@H](C)C1 [Cycloheximide]
- Ca2+-activated cholesterol transfer to IM [5]: significantly reduced
- effect on Ang II increase of StAR in IM [6]: prevented

Molecule: COc1ccc(S(=O)(=O)N(CCO)c2ccccc2CN(C)CC=Cc2ccc(Cl)cc2)cc1 [KN93, 2-[N-(2-hydroxyethyl)-N-(4-methoxybenzenesulfonyl)]amino-N-(4-chlorocinnamyl)-N-methylbenzylamine]
- aldosterone production ([7]; KN93 3 μM): potently inhibited
- block of steroidogenesis ([7]; KN93 between 1 and 3 μM): 60 to 80%
- induction of StAR protein by Ang II, K+, or Bay K ([1]; KN93 between 1 and 3 μM): did not affect
- agonist-induction of StAR protein expression ([1]; co-treatment with KN93 3 μM): not affected

Molecule: [Cl-].[K+] [K^+, potassium chloride]
- amount of StAR protein [1]: increased; also recorded: elevated

Molecule: CRH: Corticotropin-Releasing Hormone (SEEPPISLDLTFHLLREVLEMARAEQLAQQAHSNRKLMEII; ends and bridges not checked; UniProt P06850 154-194, looked up)
- concentration of maximal response (StAR synthesis) [4]: 1 µM
- synthesis of the StAR protein [4]: dose-dependent increase
- time of maximal response following stimulation [4]: 4 h
- level of StAR synthesis versus maximal doses of CRH or hCG alone ([4]; in the presence of hCG): higher level

Molecule: [Val^5]-Angiotensin II acetate (DRVYVHPF; also: acetate salt; UniProt P01019 25-32, looked up, variant I5V) [Ang II]
- OM cholesterol ([5]; Ang II 10 nM, 2 h): No significant changes
- cholesterol in contact sites (CS) ([5]; Ang II 10 nM, 2 h, n=3): 172±28 % of controls
- StAR protein ([6]; Ang II stimulated glomerulosa cells, n=2): 157 % of controls
- StAR in IM ([6]; Ang II stimulation): increased
- amount of StAR protein [1]: increased; also recorded: elevated

B1: adrenodoxin: another mitochondrial imported protein (protein, UniProt P10109 61-184, looked up)
Adrenodoxin, mitochondrial: SSSEDKITVHFINRDGETLTTKGKVGDSLLDVVVENNLDIDGFGACEGTLACSTCHLIFEDHIYEKLDAITDEENDMLDLAYGLTDRSRLGCQICLTKSMDNMTVRVPETVADARQSIDVGKTS
- pregnenolone synthesis [8]: not affected

B2: DAX-1: transcription repressor, unusual member of the nuclear hormone receptor superfamily, overexpressed in Y-1 cells (protein, UniProt Q61066 1-472, looked up)
Nuclear receptor subfamily 0 …: MAGEDHPWQGSILYNLLMSAKQKHASQEEREVRLGAQCWGCACGAQPVLGGERLSGGQARSLLYRCCFCGENHPRQGGILYSMLTNARQPSVATQAPRARFGAPCWGCACGSAEPLVGREGLPAGQAPSLLYRCCFCGEEHPRQGSILYSLLTSAQQTHVSREAPEAHRRGEWWQLSYCTQSVGGPEGLQSTQAMAFLYRSYVCGEEQPQQISVASGTPVSADQTPATPQEQPRAPWWDASPGVQRLITLKDPQVVCEAASAGLLKTLRFVKYLPCFQILPLDQQLVLVRSCWAPLLMLELAQDHLHFEMMEIPETNTTQEMLTTRRQETEGPEPAEPQATEQPQMVSAEAGHLLPAAAVQAIKSFFFKCWSLNIDTKEYAYLKGTVLFNPDLPGLQCVKYIEGLQWRTQQILTEHIRMMQREYQIRSAELNSALFLLRFINSDVVTELFFRPIIGAVSMDDMMLEMLCAKL
- StAR mRNA and protein synthesis [9]: inhibition
- steroid synthesis [9]: complete inhibition

- reduction of total radioactivity in the liposome fraction [10]: 65%
Molecule: MFLATFKLCAGSSYRHMRNMKGLRHQ [StAR signal peptide (unlabeled, commercially synthesized)]
